Experimental data reported in patent publication US20240173339A1, “CANNABINOID FORMULATION FOR MANAGEMENT OF DEPRESSION, ANXIETY AND PTSD, AND CANNABINOID FORMULATION AS A SLEEP AID” (Zyus Life Sciences Inc., priority 2021, published 2024).
“And” between values parts separate entries of the source, which are not always exact repeats. Equal entries are not always repeated. Where two headings read alike, the source gives them in different places.

Legend:
CB1 receptors = CB1 receptors (Homo sapiens, UniProt P21554); details: cited from earlier work
CB1 receptors, sequence (P21554 whole entry): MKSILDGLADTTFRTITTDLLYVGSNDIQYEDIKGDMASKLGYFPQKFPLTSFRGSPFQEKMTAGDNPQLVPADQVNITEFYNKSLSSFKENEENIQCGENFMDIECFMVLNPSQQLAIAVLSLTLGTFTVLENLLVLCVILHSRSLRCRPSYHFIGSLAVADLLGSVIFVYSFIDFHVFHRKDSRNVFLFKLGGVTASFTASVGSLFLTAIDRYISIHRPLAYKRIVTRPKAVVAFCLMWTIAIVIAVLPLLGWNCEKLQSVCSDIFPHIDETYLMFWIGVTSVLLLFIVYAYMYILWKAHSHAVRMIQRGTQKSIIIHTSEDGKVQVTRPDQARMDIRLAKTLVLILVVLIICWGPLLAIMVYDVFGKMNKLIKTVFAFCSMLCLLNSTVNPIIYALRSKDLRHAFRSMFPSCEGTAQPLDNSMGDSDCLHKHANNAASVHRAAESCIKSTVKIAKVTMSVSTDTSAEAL

CRS mice [1] = test: Forced Swim Test (FST) in CRS mice; type: in vivo, BALB/c mice; details: CBC 20 mg/kg; for anti-depressive effect (reduction of immobility time and greater movement distance in FST): CBD 10 mg/kg, CBD+CBC 10 and 20 mg/kg
Experimental: (§1) D0-D14: Development of Depression Model by Chronic Restraint Stimulation (CRS) 1 hour per day.
(§2) D15: Treatment of Control and CRS mice (i.p injection of Cannabinoids or Vehicle).
D19: Forced swim test (FST).
(§3) Mouse Species. Adult male BALB/c mice were purchased from Charles River Laboratories.
(§4) Distress Model. Adult male BALB/c mice weighing 20-30 g were used for these experiments. Total 160 animals=10 animals/group×8 treatment groups×2 replicates. The mice groups were as following: • 1. Stress Group: Chronic Restraint Stimulation (CRS): N=80 mice • 2. Control Group: No distress […] CRS: N=80 mice
(§5) Group 2—Treatment with CBD (10 mg/kg)
(§6) Group 3—Treatment with CBC (20 mg/kg)
(§7) Group 4—Co-Treatment CBD (10 mg/kg)+CBC (20 mg/kg)
(§8) • Forced Swim Test (FST) • Elevated Plus Maze (EPM) • Open-Field Test (OFT) • Tail Suspension Test (TST)

rodents [2] = details: in vivo; cited from earlier work
[3] = in vivo; cited from earlier work
CB2 receptors = CB2 receptors (Homo sapiens, UniProt P34972); details: read-out: affinity (Ki) for CB2 receptors; cited from earlier work
CB2 receptors, sequence (P34972 whole entry): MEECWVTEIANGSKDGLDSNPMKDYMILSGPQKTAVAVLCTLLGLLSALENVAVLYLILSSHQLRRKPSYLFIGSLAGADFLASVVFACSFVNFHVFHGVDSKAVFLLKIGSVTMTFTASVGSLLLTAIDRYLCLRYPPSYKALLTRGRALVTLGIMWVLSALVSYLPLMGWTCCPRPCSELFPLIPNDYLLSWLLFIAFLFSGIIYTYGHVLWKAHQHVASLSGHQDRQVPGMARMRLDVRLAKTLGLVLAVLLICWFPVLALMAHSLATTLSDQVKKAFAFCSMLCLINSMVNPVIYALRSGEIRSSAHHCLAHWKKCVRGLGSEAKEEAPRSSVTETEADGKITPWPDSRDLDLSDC

rodents [4] = details: cited from earlier work
CRS mice [5] = test: Elevated Plus Maze (EPM) in chronic restraint stress mouse model; type: in vivo, BALB/c mice; details: i.p., CBD 10 mg/kg, CBC 20 mg/kg, or both
Experimental: as §1, §2
D16: Elevated plus maze test (EPM) (Replicate 1).
D17: Elevated plus maze test (EPM) (Replicate 2).
as §3, §4, §5, §6, §7, §8

rats = details: cited from earlier work
[6] = cited from earlier work

SMILES: CCCCCc1cc(O)c2c(c1)OC(C)(CCC=C(C)C)C=C2 (stereo not drawn) [CBC, cannabichromene]
- concentration at which it binds to CB1 receptors (CB1 receptors): higher than 1 micromolar
- FST immobility compared to Vehicle (CRS mice [1]; CBD+CBC 10+20 mg/kg): marked reduction of immobility
- anti-depressive effect (reduction of immobility time and greater movement distance in FST) (CRS mice [1]): significant anti-depressive effect
- dose with significant antidepressant effect on FST (rodents [2]): 20 mg/kg
- dose causing decreased locomotor activity [3]: 80 mg/kg and 100 mg/kg
- Ki (CB2 receptors): ~100 nM
- dose with significant antidepressant effect on TST (rodents [4]; in vivo): 40 mg/kg and 80 mg/kg
- mobility in Elevated Plus Maze (EPM) (CRS mice [5]): significantly higher mobility

SMILES: C=C(C)[C@@H]1CCC(C)=C[C@H]1c1c(O)cc(CCCCC)cc1O [CBD, cannabidiol, reference compound]
- anti-depressive effect (reduction of immobility time and greater movement distance in FST) (CRS mice [1]): significant anti-depressive effect
- dose showing anti-inflammatory and immunomodulatory effects (rats): 5 to 20 mg/kg
- dose causing decreased locomotor activity [3]: 200 mg/kg
- anti-anxiety effect ([6]; high dose (100 mg/kg)): failed
- anti-anxiety effect ([6]; low dose (10 mg/kg)): effective
- change on TST (rodents [4]; at any dose): did not cause a significant change
- mobility in Elevated Plus Maze (EPM) (CRS mice [5]): significantly higher mobility
